Test results: ChEMBL document CHEMBL5614376, “Discovery of MT-1207: A Novel, Potent Multitarget Inhibitor as a Promising Clinical Candidate for the Treatment of Hypertension” (J Med Chem, 2024)
The source made the active and inactive calls. No cut-off for these calls is given here.

Columns and labels:
[1] = target: T1, Alpha-1A adrenergic receptor (Homo sapiens) (UniProt P35348); assay: Displacement of [3H]prazosin from recombinant human alpha 1A adrenoceptor extracted from CHO cell membrane at 100 nM incubated for 60 mins by radioligand binding assay relative to control; type: cell membranes
T1 sequence (whole entry): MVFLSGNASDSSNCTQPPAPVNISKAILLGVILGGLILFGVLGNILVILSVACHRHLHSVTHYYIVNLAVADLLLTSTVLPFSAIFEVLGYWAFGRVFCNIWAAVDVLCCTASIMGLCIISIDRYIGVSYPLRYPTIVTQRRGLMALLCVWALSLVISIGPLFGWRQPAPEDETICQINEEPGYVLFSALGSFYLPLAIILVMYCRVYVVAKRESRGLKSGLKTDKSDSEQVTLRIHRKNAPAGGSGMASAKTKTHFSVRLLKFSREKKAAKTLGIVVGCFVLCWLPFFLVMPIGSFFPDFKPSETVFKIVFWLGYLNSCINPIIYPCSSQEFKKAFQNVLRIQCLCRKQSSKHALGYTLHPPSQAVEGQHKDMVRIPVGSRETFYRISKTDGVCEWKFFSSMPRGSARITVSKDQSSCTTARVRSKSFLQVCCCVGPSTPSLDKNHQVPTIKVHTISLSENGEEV

[2] = target: T2, 5-hydroxytryptamine receptor 2A (Homo sapiens, UniProt P28223); assay: Displacement of [3H]Ketanserin from recombinant human 5-HT2A receptor extracted from CHO cell membrane at 100 nM incubated for 60 mins by radioligand binding assay relative to control; type: cell membranes
[3] = target: T1, Alpha-1A adrenergic receptor (Homo sapiens); assay: Displacement of [3H]prazosin from recombinant human alpha 1A adrenoceptor extracted from CHO cell membrane at 10 nM incubated for 60 mins by radioligand binding assay relative to control; type: cell membranes
[4] = target: T1, Alpha-1A adrenergic receptor (Homo sapiens); assay: Displacement of [3H]prazosin from recombinant human alpha 1A adrenoceptor extracted from CHO cell membrane at 1 nM incubated for 60 mins by radioligand binding assay relative to control; type: cell membranes
[5] = target: T2, 5-hydroxytryptamine receptor 2A; assay: Displacement of [3H]Ketanserin from recombinant human 5-HT2A receptor extracted from CHO cell membrane at 10 nM incubated for 60 mins by radioligand binding assay relative to control; type: cell membranes
[6] = target: T2, 5-hydroxytryptamine receptor 2A; assay: Displacement of [3H]Ketanserin from recombinant human 5-HT2A receptor extracted from CHO cell membrane at 1 nM incubated for 60 mins by radioligand binding assay relative to control; type: cell membranes
[7] = test system: Rattus norvegicus; assay: Antihypertensive activity in 2K2C renovascular hypertensive Sprague-Dawley rat model assessed as systolic blood pressure at 20 mg/kg, po measured after 9 weeks (Rvb ~ 202 mmHg); type: functional
[8] = test system: Rattus norvegicus; assay: Effect on serum urea level in 2K2C renovascular hypertensive Sprague-Dawley rat model at 20 mg/kg, po measured after 9 weeks by biochemical analysis; type: functional, organism-based
[9] = test system: Rattus norvegicus; assay: Effect on serum creatinine level in 2K2C renovascular hypertensive Sprague-Dawley rat model at 20 mg/kg, po measured after 9 weeks by biochemical analysis; type: functional, organism-based

T2 sequence (P28223 whole entry): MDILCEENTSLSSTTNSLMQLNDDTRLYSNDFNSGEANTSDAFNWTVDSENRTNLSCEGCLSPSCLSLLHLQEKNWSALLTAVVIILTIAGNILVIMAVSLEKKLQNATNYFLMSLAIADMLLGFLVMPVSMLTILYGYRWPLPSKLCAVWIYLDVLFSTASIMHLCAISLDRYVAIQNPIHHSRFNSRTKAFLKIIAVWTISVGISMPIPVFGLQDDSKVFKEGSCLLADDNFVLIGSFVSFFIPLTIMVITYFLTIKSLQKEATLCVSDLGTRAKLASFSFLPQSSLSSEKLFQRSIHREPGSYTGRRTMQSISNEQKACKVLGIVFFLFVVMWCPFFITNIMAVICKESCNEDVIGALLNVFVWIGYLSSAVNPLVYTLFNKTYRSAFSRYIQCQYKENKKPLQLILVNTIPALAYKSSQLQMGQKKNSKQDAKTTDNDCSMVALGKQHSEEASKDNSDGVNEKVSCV

Row | SMILES | inhibition ([1]; filed as antagonist) | inhibition [3] | inhibition [4] | inhibition ([2]; filed as antagonist) | inhibition ([3]; filed as antagonist) | inhibition ([5]; filed as antagonist) | inhibition ([4]; filed as antagonist) | also measured
1 | COc1ccccc1N1CCN(CCCOc2cccc(C)c2C)CC1 | 40.1% | 7.19% |  |  |  |  |  | inhibition [2]: 37.7%
2 | c1ccc(N2CCN(CCCCn3nnc4ccccc43)CC2)cc1 | 79.6% | 35% | -9.51% |  |  |  |  | inhibition [2]: 39.2%
3 | Clc1cccc(N2CCN(CCCCn3nnc4ccccc43)CC2)c1 | 97.4% |  | 5.9% | 77.6% | 74.2% |  |  | inhibition [5]: 17.2%
4 | FC(F)(F)c1cccc(N2CCN(CCCCCn3nnc4ccccc43)CC2)c1 | 75.3% | 13% |  | 71.4% |  |  |  | inhibition [5]: 7.37%
5 | Fc1ccc2ncn(CCCCN3CCN(c4cccc(C(F)(F)F)c4)CC3)c2c1 | 79.7% | 34.7% | -7.67% |  |  |  |  | inhibition [2]: 26.1%
6 | Fc1ccc2c(C3CCN(CCCCn4nc5ccccc5n4)CC3)noc2c1 | 99.9% |  |  | 98.9% | 99.9% | 82% | 83.4% | inhibition [6]: -5.42%
7 | c1ccc2nn(CCCCN3CCN(c4nsc5ccccc45)CC3)nc2c1 | 100% |  |  | 101% | 96.2% | 78.3% | 68.8% | inhibition [6]: -9.49%
8 | Fc1ccc2c(C3CCN(CCCCn4nnc5ccccc54)CC3)noc2c1 | 101% |  |  | 98.2% | 100% | 89.5% | 93.8% | inhibition [6]: 39.9%
9 | FC(F)(F)c1cccc(N2CCN(CCCCn3nc4ccccc4n3)CC2)c1 | 53% | -1.54% | -7.22% |  |  |  |  | inhibition [2]: 38.1%
10 | FC(F)(F)c1cccc(N2CCN(CCCCCCn3nnc4ccccc43)CC2)c1 | 63.3% | 4.15% |  | 53.5% |  |  |  | inhibition [5]: 11.3%; inhibition [6]: -9.54%
11 | FC(F)(F)c1cccc(N2CCN(CCCCCCn3nc4ccccc4n3)CC2)c1 |  | 7.06% |  |  |  |  |  | inhibition [1]: 30.3%; inhibition [2]: 9.94%
12 | FC(F)(F)c1cccc(N2CCN(CCCn3nnc4ccccc43)CC2)c1 | 61.3% | -2.01% |  | 64.5% |  |  |  | inhibition [5]: -6.65%
13 | Cc1nc2ccccc2n1CCCCN1CCN(c2cccc(C(F)(F)F)c2)CC1 | 98.9% |  | 6.89% |  | 79.8% |  |  | inhibition [2]: -5.62%
14 | c1ccc2c(c1)nnn2OCCCN1CCN(c2nsc3ccccc23)CC1 | 93.7% |  |  | 100% | 82.3% | 81.3% | 44.2% | 
15 | FC(F)(F)c1cccc(N2CCN(CCCn3nc4ccccc4n3)CC2)c1 |  | -9.63% | -8.07% | 44.7% |  |  |  | inhibition [1]: 20.7%
16 | FC(F)(F)c1cccc(N2CCN(CCCCCn3nc4ccccc4n3)CC2)c1 | 44.8% | 14.8% | 8.76% |  |  |  |  | inhibition [2]: 14%
17 | Fc1cccc(N2CCN(CCCCn3nnc4ccccc43)CC2)c1 | 91% |  | -7.76% | 54% | 46.6% |  |  | inhibition [5]: -2.88%
18 | COc1cccc(OC)c1OCCNCC1COc2ccccc2O1 (stereo not drawn) | 102% |  |  |  | 87% |  | 46.3% | 
19 | O=C(c1ccc(F)cc1)C1CCN(CCn2c(=O)[nH]c3ccccc3c2=O)CC1 |  |  |  |  |  | 89.6% |  | inhibition ([6]; filed as antagonist): 41.2%
20 | FC(F)(F)c1cccc(N2CCN(CCn3nnc4ccccc43)CC2)c1 |  |  |  |  |  |  |  | inhibition [1]: 3.42%; inhibition [2]: 18.9%
21 | CCCCc1nc(Cl)c(CO)n1Cc1ccc(-c2ccccc2-c2nnn[nH]2)cc1 [LOSARTAN] |  |  |  |  |  |  |  | Activity [7]: 176 mmHg; Activity [8]: Active; Activity [9]: Active
22 | FC(F)(F)c1cccc(N2CCN(CCCCn3nnc4ccccc43)CC2)c1 | 72.5% | 38% | -5.08% | 63.4% |  |  |  | inhibition [5]: 0%
23 | c1ccc2c(c1)nnn2CCCN1CCN(c2nsc3ccccc23)CC1 | 96.4% |  |  | 98.5% | 82.6% | 89.4% | 44.5% | inhibition [6]: 8.15%

Now from value to compound, other results behind:

Row | inhibition ([1]; filed as antagonist) | inhibition [3] | inhibition [4] | inhibition ([2]; filed as antagonist) | inhibition ([3]; filed as antagonist) | inhibition ([5]; filed as antagonist) | inhibition ([4]; filed as antagonist) | SMILES | also measured
24 | 96.9% |  |  | 95.4% | 95% | 71.5% | 98.6% | Fc1ccc2c(N3CCN(CCCCn4nnc5ccccc54)CC3)noc2c1 | 
25 | 100% |  |  | 96% | 100% | 81.9% | 80.7% | Fc1ccc2c(C3CCN(CCCCn4cnc5ccccc54)CC3)noc2c1 | inhibition [6]: -3.85%
26 | 99% |  |  | 84.9% | 94% |  | 69.5% | c1ccc2nn(CCCCN3CCN(c4noc5ccccc45)CC3)nc2c1 | inhibition [5]: 5.31%
27 | 101% |  |  | 96.5% | 99% | 61.1% | 83.1% | Fc1ccc2c(N3CCN(CCCCn4nc5ccccc5n4)CC3)noc2c1 | 
28 | 78% | 27% | 11.7% | 55% |  |  |  | Clc1cccc(N2CCN(CCCCn3cnc4ccccc43)CC2)c1Cl | inhibition [5]: -5.13%
29 | 99.8% |  |  | 99.6% | 98.9% | 93.4% | 78% | c1ccc2c(c1)ncn2CCCCN1CCN(c2nsc3ccccc23)CC1 | inhibition [6]: 15.4%
30 | 98% |  | 24.6% | 94% | 74.9% | 68.8% |  | c1ccc2c(c1)ncn2CCCN1CCN(c2nsc3ccccc23)CC1 | inhibition [6]: -1.8%
31 | 99.1% |  | 29.5% | 99.1% | 65.1% | 79.1% |  | Fc1ccc2c(N3CCN(CCCn4nc5ccccc5n4)CC3)noc2c1 | inhibition [6]: 5.91%
32 | 100% |  |  | 98% | 98.4% | 87.3% | 52.8% | Fc1ccc2c(N3CCN(CCCn4cnc5ccccc54)CC3)noc2c1 | inhibition [6]: 24.9%
33 | 86.9% | 22.8% | -0.88% | 68.7% |  |  |  | COc1ccccc1N1CCN(CCCCn2cnc3ccccc32)CC1 | inhibition [5]: -4.99%
34 | 99% |  | 28.9% | 98.3% | 83.2% | 98.7% |  | Fc1ccc2c(C3CCN(CCCn4nc5ccccc5n4)CC3)noc2c1 | inhibition ([6]; filed as antagonist): 79.7%
35 | 89.3% | 36.4% | -1.42% |  |  |  |  | FC(F)(F)c1cccc(N2CCN(CCCCn3cnc4ccccc43)CC2)c1 | inhibition [2]: 37.7%
36 | 99.9% |  |  | 94.2% | 97.5% | 76% | 69.7% | Fc1ccc2c(C3CCN(CCCn4cnc5ccccc54)CC3)noc2c1 | inhibition [6]: 15.9%
37 | 98.8% |  | 39.8% | 98.7% | 87.7% | 96.4% |  | Fc1ccc2c(C3CCN(CCCn4nnc5ccccc54)CC3)noc2c1 | inhibition ([6]; filed as antagonist): 76.9%
38 | 80.1% | 21.3% | -3.72% |  |  |  |  | Fc1cccc(N2CCN(CCCCn3cnc4ccccc43)CC2)c1 | inhibition [2]: 1.87%
39 | 95.3% |  |  | 95.8% | 86.2% | 80.9% | 46% | Fc1ccc2c(N3CCN(CCCn4nnc5ccccc54)CC3)noc2c1 | 
40 | 100% |  |  | 88.8% | 99.2% |  | 85.9% | c1ccc2c(c1)nnn2CCCCN1CCN(c2noc3ccccc23)CC1 | inhibition [5]: 38.3%
41 | 101% |  |  | 97% | 100% | 83.1% | 89.6% | Fc1ccc2c(N3CCN(CCCCn4cnc5ccccc54)CC3)noc2c1 | inhibition [6]: 22.6%
42 | 98.5% |  | 15.4% | 67.2% | 71.6% |  |  | Clc1cccc(N2CCN(CCCCn3cnc4ccccc43)CC2)c1 | inhibition [5]: -1.87%
43 | 95.6% |  | -1.06% |  | 55% |  |  | COc1cccc(N2CCN(CCCCn3cnc4ccccc43)CC2)c1 | inhibition [2]: 13.1%
